From patent US10344019B2 (priority 2010, dated 2019)

How the values were obtained:
Assay type in all cases: cell-based
[1] = tested on: Q30R in genotype 1a NS5A, 1a Rluc replicon transfected into Huh-7 cured-51 cells; test: HCV replicon assay, resistance mutant 1a Q30R; conditions: Hepatitis C virus, Huh-7, read-out: 1a Q30R
Procedure, shortened: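 Q30R introduced into genotype 1a H77 RLuc replicon by site-directed mutagenesis; replicon RNA transfected into Huh-7 cured-51 cells.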

[2] = tested on: HCV 2b Rluc cells (NS5A chimeric genotype 2a JFH-1 replicon with genotype 2b MD2b-1 NS5A gene, M31 present); test: microbe, parasite or virus in culture; conditions: Hepatitis C virus, read-out: 2b
Procedure, shortened: (§1)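 Replicon cells stably carrying the listed RLuc-encoding dicistronic replicons were seeded and treated with DMSO serial dilutions of compound (10 mM stocks) diluted into culture medium. After 72 h, cells were lysed and Renilla luciferase activity measured. EC50 was derived by non-linear regression.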

[3] = tested on: HCV 1b RLuc cells (dicistronic genotype 1b Con1 replicon, RLuc reporter); test: microbe, parasite or virus in culture; conditions: Hepatitis C virus, read-out: 1b (nM)
Procedure, shortened: (§2)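 Renilla luciferase HCV replicon cells: dicistronic 1b Con1, 1a H77 or 2a JFH-1 replicons, or a JFH-1 chimera carrying J6 NS5A (M31 present). Compound in DMSO serial dilutions, 72 h incubation, then lysis and luciferase read. EC50 by non-linear regression.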

[4] = tested on: HCV 2a JFH-1 Rluc cells (dicistronic genotype 2a JFH-1 replicon, RLuc reporter); test: microbe, parasite or virus in culture; conditions: Hepatitis C virus, genotype 2a JFH-1 RLuc replicon; read-out: 2a JFH
Procedure, shortened: as §2

[5] = tested on: HCV 3a RLuc cells (NS5A chimeric genotype 1b Con1 replicon with consensus genotype 3a NS5A gene); test: microbe, parasite or virus in culture; conditions: Hepatitis C virus, read-out: 3a, genotype 3a NS5A chimeric replicon
Procedure, shortened: as §1

[6] = tested on: HCV 4a Rluc cells (NS5A chimeric genotype 1b Con1 replicon with genotype 4a NS5A gene); test: microbe, parasite or virus in culture; conditions: Hepatitis C virus, read-out: 4a
Procedure, shortened: as §1

[7] = tested on: HCV 1a RLuc cells (dicistronic genotype 1a H77 replicon, RLuc reporter); test: microbe, parasite or virus in culture; conditions: Hepatitis C virus, genotype 1a H77 RLuc replicon; read-out: 1a
Procedure, shortened: as §2

[8] = tested on: HCV 2a Rluc cells (NS5A chimeric genotype 2a JFH-1 replicon with genotype 2a J6 strain NS5A gene, M31 present); test: HCV replicon reporter assay, genotype 2a J6 (M31 present); conditions: Hepatitis C virus, read-out: 2a J6
Procedure, shortened: as §2

Structure (SMILES): COC(=O)N[C@H](C(=O)N1[C@H](c2nc3ccc4cc5c(cc4c3[nH]2)OCc2cc(-c3cnc(C4CCCN4C(=O)[C@@H](NC(=O)OC)C4CCOCC4)[nH]3)ccc2-5)C[C@@H]2CCC[C@@H]21)C(C)C (stereo partly shown) [Example 575]
- EC50 [1]: 0.001 to 0.999 nM
- EC50 [2]: 0.001 to 0.999 nM
- EC50 [3]: 0.029 nM
- EC50 [4]: 0.001 to 0.999 nM
- EC50 [5]: 0.001 to 0.99 nM
- EC50 [6]: 0.001 to 0.99 nM
- EC50 [7]: 0.001 to 0.999 nM
- EC50 [8]: 0.001 to 0.999 nM

Structure (SMILES): COC[C@H]1C[C@@H](c2ncc(-c3ccc4c(c3)COc3cc5c(ccc6nc([C@@H]7C[C@H](COC)CN7C(=O)[C@@H](NC(=O)OC)C(C)C)[nH]c65)cc3-4)[nH]2)N(C(=O)[C@@H](NC(=O)OC)C(C)C)C1 [Example 579]
- EC50 [1]: 0.001 to 0.999 nM
- EC50 [2]: 0.001 to 0.999 nM
- EC50 [3]: 0.034 nM
- EC50 [4]: 0.001 to 0.999 nM
- EC50 [5]: 0.001 to 0.99 nM
- EC50 [6]: 0.001 to 0.99 nM
- EC50 [7]: 0.001 to 0.999 nM
- EC50 [8]: 0.001 to 0.999 nM

Structure (SMILES): CC#Cc1cc2nc([C@@H]3CCCN3C(=O)[C@@H](NC(=O)OC)C(C)C)[nH]c2c2ccc(-c3ccc4c(ccc5nc([C@@H]6C[C@H](COC)CN6C(=O)[C@H](NC(=O)OC)c6ccccc6)[nH]c54)c3)cc12 [Example 581]
- EC50 [1]: 0.001 to 0.999 nM
- EC50 [2]: 0.001 to 0.999 nM
- EC50 [3]: 0.007 nM
- EC50 [4]: 0.001 to 0.999 nM
- EC50 [5]: 0.001 to 0.99 nM
- EC50 [6]: 0.001 to 0.99 nM
- EC50 [7]: 0.001 to 0.999 nM
- EC50 [8]: 0.001 to 0.999 nM

Structure (SMILES): COC(=O)N[C@H](C(=O)N1C[C@@H](C)C[C@H]1c1ncc(-c2ccc3c(c2)COc2cc4c(ccc5nc([C@@H]6C[C@H](C)CN6C(=O)[C@H](NC(=O)OC)c6ccccc6)[nH]c54)cc2-3)[nH]1)C(C)C [Example 582]
- EC50 [1]: 0.001 to 0.999 nM
- EC50 [2]: 0.001 to 0.999 nM
- EC50 [3]: 0.01 nM
- EC50 [4]: 0.001 to 0.999 nM
- EC50 [5]: 0.001 to 0.99 nM
- EC50 [6]: 0.001 to 0.99 nM
- EC50 [7]: 0.001 to 0.999 nM
- EC50 [8]: 0.001 to 0.999 nM

Structure (SMILES): COC[C@H]1C[C@@H](c2nc3ccc4cc(-c5ccc6c(ccc7nc([C@@H]8C[C@H](SCC(F)(F)F)CN8C(=O)[C@@H](NC(=O)OC)C(C)C)[nH]c76)c5)ccc4c3[nH]2)N(C(=O)[C@H](NC(=O)OC)c2ccccc2)C1 [Example 584]
- EC50 [1]: 0.001 to 0.999 nM
- EC50 [2]: 0.001 to 0.999 nM
- EC50 [3]: 0.015 nM
- EC50 [4]: 0.001 to 0.999 nM
- EC50 [5]: 0.001 to 0.99 nM
- EC50 [6]: 0.001 to 0.99 nM
- EC50 [7]: 0.001 to 0.999 nM
- EC50 [8]: 0.001 to 0.999 nM

Structure (SMILES): COC(=O)N[C@H](C(=O)N1[C@@H](C)CC[C@H]1c1ncc(-c2ccc3c(c2)COc2cc4c(ccc5nc([C@@H]6CC[C@H](C)N6C(=O)[C@@H](NC(=O)OC)C(C)C)[nH]c54)cc2-3)[nH]1)C(C)C [Example 585]
- EC50 [1]: 0.001 to 0.999 nM
- EC50 [2]: 0.001 to 0.999 nM
- EC50 [3]: 0.009 nM
- EC50 [4]: 0.001 to 0.999 nM
- EC50 [5]: 0.001 to 0.99 nM
- EC50 [6]: 0.001 to 0.99 nM
- EC50 [7]: 0.001 to 0.999 nM
- EC50 [8]: 0.001 to 0.999 nM

Structure (SMILES): COC[C@H]1C[C@@H](c2ncc(-c3ccc4c(c3)COc3cc5c(ccc6nc([C@@H]7CCCN7C(=O)[C@@H](NC(=O)OC)C(C)C)[nH]c65)cc3-4)[nH]2)N(C(=O)[C@H](NC(=O)OC)c2ccccc2)C1 [Example 590]
- EC50 [1]: 0.001 to 0.999 nM
- EC50 [2]: 0.001 to 0.999 nM
- EC50 [3]: 0.014 nM
- EC50 [4]: 0.001 to 0.999 nM
- EC50 [5]: 0.001 to 0.99 nM
- EC50 [6]: 0.001 to 0.99 nM
- EC50 [7]: 0.001 to 0.999 nM
- EC50 [8]: 0.001 to 0.999 nM

Structure (SMILES): COC[C@H]1C[C@@H](c2ncc(-c3cc4c5c(c3)OCc3cc(-c6cnc([C@@H]7CC[C@H](C)N7C(=O)[C@@H](NC(=O)OC)C(C)C)[nH]6)cc(c3-5)OC4)[nH]2)N(C(=O)[C@H](NC(=O)OC)c2ccccc2)C1 [Example 596]
- EC50 [1]: 0.001 to 0.999 nM
- EC50 [2]: 0.001 to 0.999 nM
- EC50 [3]: 0.013 nM
- EC50 [4]: 0.001 to 0.999 nM
- EC50 [5]: 0.001 to 0.99 nM
- EC50 [6]: 0.001 to 0.99 nM
- EC50 [7]: 0.001 to 0.999 nM
- EC50 [8]: 0.001 to 0.999 nM
